# Data from patent publication US6737383B1, “Herbicidal oxadiazolidines” (priority 1999, dated 2004).
# Key:
# velvetleaf = assay: Test B pre/postemergence velvetleaf; assay type: in vivo, Abutilon theophrasti
# Summary of the method: (§1)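 Herbicidal effect was estimated by eye on a ten-point control scale after plants spent twelve to sixteen days in a greenhouse following soil or foliar treatment. Foliar sprays targeted plants at one to four leaves; all doses were formulated in a non-phytotoxic solvent with surfactant.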
# corn = assay: Test B pre/postemergence corn; assay type: in vivo, Zea mays
# Summary of the method: as §1
# pigweed = assay: Test B pre/postemergence pigweed; assay type: in vivo, Amaranthus retroflexus
# Summary of the method: as §1
# blackgrass = assay: Test B pre/postemergence blackgrass; assay type: in vivo, Alopecurus myosuroides
# Summary of the method: as §1
# wheat = assay: Test B pre/postemergence wheat; assay type: in vivo, Triticum aestivum
# Summary of the method: as §1
# bedstraw = assay: Test B pre/postemergence bedstraw; assay type: in vivo, Galium aparine
# Summary of the method: as §1
# purple nutsedge = assay: Test B pre/postemergence purple nutsedge; assay type: in vivo, Cyperus rotundus
# Summary of the method: as §1
# cocklebur = assay: Test B pre/postemergence cocklebur; assay type: in vivo, Xanthium strumarium
# Summary of the method: as §1
# crabgrass = assay: Test B pre/postemergence crabgrass; assay type: in vivo, Digitaria sanguinalis
# Summary of the method: as §1
# wild oat = assay: Test B pre/postemergence wild oat; assay type: in vivo, Avena fatua
# Summary of the method: as §1
# soybean = assay: Test B pre/postemergence soybean; assay type: in vivo, Glycine max
# Summary of the method: as §1
# rape = assay: Test B pre/postemergence rape; assay type: in vivo, Brassica napus
# Summary of the method: as §1
# giant foxtail = assay: Test B pre/postemergence giant foxtail; assay type: in vivo, Setaria faberii
# Summary of the method: as §1
# sugar beet = assay: Test B pre/postemergence sugar beet; assay type: in vivo, Beta vulgaris
# Summary of the method: as §1
# surinam grass = assay: Test B pre/postemergence surinam grass; assay type: in vivo, Brachiaria decumbens
# Summary of the method: as §1
# morningglory = assay: Test B pre/postemergence morningglory; assay type: in vivo, Ipomoea hederacea
# Summary of the method: as §1
# [1] = Postemergence, Rate 62 g/ha, scale 0 to 10, 0 is no effect, 10 is complete control
# [2] = Preemergence, Rate 125 g/ha, scale of 0 to 10 where 0 is no effect and 10 is complete control
# [3] = Preemergence, Rate 250 g/ha, scale 0 (no effect) to 10 (complete control)
# [4] = Rate 62 g/ha, Preemergence, scale 0 to 10
# [5] = Rate 250 g/ha, Postemergence, scale 0 to 10, 0 is no effect, 10 is complete control
# [6] = Rate 500 g/ha, Postemergence, scale 0 to 10, 0 is no effect, 10 is complete control
# [7] = Rate 500 g/ha, Preemergence, scale 0 to 10 (0 no effect, 10 complete control)
# [8] = Postemergence, Rate 125 g/ha, scale of 0 to 10 where 0 is no effect and 10 is complete control
compound,measurement,setting,value
Cc1nc(C(C)n2c(=O)on(C(=O)N(c3ccc(F)cc3)C(C)C)c2=O)sc1C (stereo not shown) [Compound 757],"Plant response rating, Velvetleaf",velvetleaf; [1],0
same,"Plant response rating, Velvetleaf",velvetleaf; [2],0
same,Velvetleaf plant response rating,velvetleaf; [3],0
same,Velvetleaf plant response rating,velvetleaf; [4],0
same,Velvetleaf plant response rating,velvetleaf; [5],3
same,Velvetleaf plant response rating,velvetleaf; [6],4
same,Velvetleaf plant response rating,velvetleaf; [7],0
same,"Plant response rating, Corn",corn; [1],0
same,Corn plant response rating,corn; [8],0
same,"Plant response rating, Corn",corn; [2],0
same,Corn plant response rating,corn; [3],0
same,Corn plant response rating,corn; [4],0
same,Corn plant response rating,corn; [5],0
same,Corn plant response rating,corn; [6],0
same,Corn plant response rating,corn; [7],0
same,"Plant response rating, Redroot pigweed",pigweed; [1],1
same,Redroot pigweed plant response rating,pigweed; [8],3
same,"Plant response rating, Redroot pigweed",pigweed; [2],0
same,Redroot pigweed plant response rating,pigweed; [3],2
same,Redroot pigweed plant response rating,pigweed; [4],0
same,Redroot pigweed plant response rating,pigweed; [5],5
same,Redroot pigweed plant response rating,pigweed; [6],7
same,Redroot pigweed plant response rating,pigweed; [7],3
same,"Plant response rating, Blackgrass",blackgrass; [1],0
same,Blackgrass plant response rating,blackgrass; [8],0
same,"Plant response rating, Blackgrass",blackgrass; [2],2
same,Blackgrass plant response rating,blackgrass; [3],3
same,Blackgrass plant response rating,blackgrass; [4],1
same,Blackgrass plant response rating,blackgrass; [5],3
same,Blackgrass plant response rating,blackgrass; [6],4
same,Blackgrass plant response rating,blackgrass; [7],7
same,"Plant response rating, Wheat",wheat; [1],0
same,"Plant response rating, Wheat",wheat; [2],0
same,Wheat plant response rating,wheat; [3],0
same,Wheat plant response rating,wheat; [4],0
same,Wheat plant response rating,wheat; [5],0
same,Wheat plant response rating,wheat; [6],0
same,Wheat plant response rating,wheat; [7],3
same,Bedstraw plant response rating,bedstraw; [8],0
same,"Plant response rating, Bedstraw",bedstraw; [2],0
same,Bedstraw plant response rating,bedstraw; [3],0
same,Bedstraw plant response rating,bedstraw; [4],0
same,Bedstraw plant response rating,bedstraw; [5],0
same,Bedstraw plant response rating,bedstraw; [7],0
same,"Plant response rating, Nutsedge",purple nutsedge; [1],0
same,Nutsedge plant response rating,purple nutsedge; [8],0
same,"Plant response rating, Nutsedge",purple nutsedge; [2],0
same,Nutsedge plant response rating,purple nutsedge; [3],0
same,Nutsedge plant response rating,purple nutsedge; [4],0
same,Nutsedge plant response rating,purple nutsedge; [5],0
same,Nutsedge plant response rating,purple nutsedge; [6],0
same,Nutsedge plant response rating,purple nutsedge; [7],0
same,"Plant response rating, Cocklebur",cocklebur; [1],0
same,Cocklebur plant response rating,cocklebur; [8],0
same,"Plant response rating, Cocklebur",cocklebur; [2],0
same,Cocklebur plant response rating,cocklebur; [3],0
same,Cocklebur plant response rating,cocklebur; [4],0
same,Cocklebur plant response rating,cocklebur; [5],2
same,Cocklebur plant response rating,cocklebur; [6],2
same,Cocklebur plant response rating,cocklebur; [7],0
same,"Plant response rating, Crabgrass",crabgrass; [1],3
same,Crabgrass plant response rating,crabgrass; [8],4
same,"Plant response rating, Crabgrass",crabgrass; [2],9
same,Crabgrass plant response rating,crabgrass; [3],9
same,Crabgrass plant response rating,crabgrass; [4],6
same,Crabgrass plant response rating,crabgrass; [5],6
same,Crabgrass plant response rating,crabgrass; [6],6
same,Crabgrass plant response rating,crabgrass; [7],9
same,"Plant response rating, Wild oats",wild oat; [1],0
same,"Plant response rating, Wild oats",wild oat; [2],0
same,Wild oats plant response rating,wild oat; [3],2
same,Wild oats plant response rating,wild oat; [4],0
same,Wild oats plant response rating,wild oat; [5],0
same,Wild oats plant response rating,wild oat; [6],0
same,Wild oats plant response rating,wild oat; [7],5
same,"Plant response rating, Soybean",soybean; [1],3
same,"Plant response rating, Soybean",soybean; [2],0
same,Soybean plant response rating,soybean; [3],0
same,Soybean plant response rating,soybean; [4],0
same,Soybean plant response rating,soybean; [5],4
same,Soybean plant response rating,soybean; [6],4
same,Soybean plant response rating,soybean; [7],0
same,"Plant response rating, Rape",rape; [1],0
same,Rape plant response rating,rape; [8],0
same,"Plant response rating, Rape",rape; [2],0
same,Rape plant response rating,rape; [3],0
same,Rape plant response rating,rape; [4],0
same,Rape plant response rating,rape; [5],0
same,Rape plant response rating,rape; [6],0
same,Rape plant response rating,rape; [7],0
same,"Plant response rating, Giant foxtail",giant foxtail; [1],2
same,Giant foxtail plant response rating,giant foxtail; [8],2
same,"Plant response rating, Giant foxtail",giant foxtail; [2],9
same,Giant foxtail plant response rating,giant foxtail; [3],9
same,Giant foxtail plant response rating,giant foxtail; [4],9
same,Giant foxtail plant response rating,giant foxtail; [5],5
same,Giant foxtail plant response rating,giant foxtail; [6],7
same,Giant foxtail plant response rating,giant foxtail; [7],9
same,"Plant response rating, Sugarbeets",sugar beet; [1],0
same,"Plant response rating, Sugarbeets",sugar beet; [2],0
same,Sugarbeets plant response rating,sugar beet; [3],0
same,Sugarbeets plant response rating,sugar beet; [4],0
same,Sugarbeets plant response rating,sugar beet; [5],3
same,Sugarbeets plant response rating,sugar beet; [6],3
same,Sugarbeets plant response rating,sugar beet; [7],0
same,"Plant response rating, B. signalgrass",surinam grass; [1],0
same,B. signalgrass plant response rating,surinam grass; [8],0
same,B. signalgrass plant response rating,"surinam grass; Preemergence, Rate 62 g/ha, scale of 0 to 10 where 0 is no effect and 10 is complete control",0
same,"Plant response rating, B. signalgrass",surinam grass; [2],0
same,B. signalgrass plant response rating,surinam grass; [3],2
same,B. signalgrass plant response rating,surinam grass; [5],0
same,B. signalgrass plant response rating,surinam grass; [6],1
same,B. signalgrass plant response rating,surinam grass; [7],7
same,"Plant response rating, Morningglory",morningglory; [1],6
same,Morningglory plant response rating,morningglory; [8],6
same,"Plant response rating, Morningglory",morningglory; [2],0
same,Morningglory plant response rating,morningglory; [3],0
same,Morningglory plant response rating,morningglory; [4],0
same,Morningglory plant response rating,morningglory; [5],7
same,Morningglory plant response rating,morningglory; [6],9
same,Morningglory plant response rating,morningglory; [7],0
